Data taken from patent publication US11992499B2, “Quinoline derivatives for use in the treatment of inflammation diseases” (ABIVAX, priority 2018, dated 2024).

Columns and labels:
[1] = tested on: monocrotaline model of pulmonary arterial hypertension; assay: Rat monocrotaline model of pulmonary arterial hypertension: mean pulmonary pressure; type: in vivo; conditions: female rat, MCT, 50 mg/kg BID gavage Day 7 to Day 28, n = 11
Procedure: • 1. The experimental trace to be analyzed is opened in Clampfit. • 2. Right atria pressure is recorded for 1 minute • 3. PAP recorded continuously for at least 1 minute or until loss of signal, is used to extract the mean, diastolic, and systolic pulmonary pressure. • 4. The systemic arterial pressure (SAP) recorded continuously is used to extract the mean, diastolic and systolic arterial pressure. • 5. At the end of the hemodynamic parameters recording, the right and left ventricle including the septum and the lung lobes is excised to determine wet weights. • 6. Each parameter is compiled for each group and presented in bar graphs with appropriate statistical analysis.
The appropriate amount of monocrotaline is weighed and ⅓ of the correct volume of 1.0N HCl is added and mixed to ensure monocrotaline solubilisation. The solution is then neutralized with ⅓ of the correct volume of 1.0 N NaOH. The pH of the solution is checked with a pH indicator paper/strip or an electronic pH meter and adjusted to neutral as necessary; the final volume is completed with water for injection to obtain a solution of 20 mg/mL. The monocrotaline solution is injected subcutaneously, over the shoulders, into the loose skin over the neck, to each rat at 3 mL/kg of body weight (dose is 60 mg/kg).
Compound A was administered as a suspension in the vehicle. To reach the required concentrations, compound A was grounded to a fine powder, using a mortar and pestle, and then mixed with 20% (final volume) of vehicle A1 until a suspension was achieved. 80% of vehicle A2 was then added to the suspension under magnetic stirring.
The appropriate amount of Sildenafil is weighed and appropriate volume of distillated water is added to obtain suspension at 5 mg/mL. The suspension is mixed with a stir bar for 30-60 minutes until a homogenous suspension is achieved. Care is taken to maintain a uniform suspension (stirring continuously) whilst doses are being drawn up into gavage syringes. One gavage syringe is filled at a time and administered before filling the next syringe. The solutions are stored refrigerated at 2 to 8° C. and protected from light. The expiration date is set at 7 days after preparation.
Animals from Groups 2 to 5 (see Table 13) receive a single subcutaneous injection of monocrotaline (60 mg/kg) solution on Day 0 and returned to their cages. Animals from Group 1 receive one subcutaneous injection vehicle for MCT on Day 0 and returned to their respective cages.
(§1) Treatment with the compound A, sildenafil or vehicle is administered as of Day 7 (Groups 2-5) as scheduled and described in Table 13. The Groups 2-4 receive a single dose per day. The reference group 5 receives sildenafil twice a day. Food and water are given ad libitum. Daily observation of the behaviour and general health status of the animals is done. Weekly body weight is taken.
Surgical Instrumentation and Measurement of Hemodynamic and Functional Parameters in Efficacy Study Animals • 1. On the selected day of surgery, rats are anaesthetized with a mixture of 2 to 2.5% isoflurane USP (Abbot Laboratories, Montreal, Canada) in oxygen, and placed on a heating pad to maintain body temperature. • 2. Rats are tracheotomized and immediately ventilated by means of a positive-pressure rodent respirator set at ≈10 ml/kg bodyweight at a frequency of 65-70 strokes/min. • 3. Lead II ECG contact electrodes is placed on the rat to continuously monitor the ECG during the surgical procedure. • 4. A cannula connected to a pressure transducer is inserted into the left femoral artery to measure the arterial blood pressure. • 5. A cannula connected to a pressure transducer is inserted into the right atria through the right jugular vein to measure the right atria pressure. • 6. The heart is exposed through a sternotomy and a 20GA 1.16 in Insyte is introduced into the right ventricle and rapidly hooked up to a saline filled PE-50 catheter connected to a transducer. • 7. […]

Sugen hypoxia model = assay: Rat Sugen hypoxia model of pulmonary arterial hypertension: mean pulmonary pressure; type: in vivo; conditions: SuHx, 50 mg/kg BID gavage Day 22 to Day 56
Procedure: Animals from Groups 2 to 5 (see Table 10) receive a single subcutaneous injection of sugen (20 mg/kg in 2 mL/kg volume) solution (10 mg/mL) on Day 0 and returned to their cages. Animals from Group 1 receive one subcutaneous injection of DMSO at 2 mL/kg (vehicle for sugen) on Day 0 and returned to their respective cages.
Groups 2-5 are placed in cages for which the controlled air is adjusted to receive a FiO2 equivalent to 0.10 (10%) using a mixture of nitrogen and ambient air controlled by the ventilated cage system. They are kept under these hypoxic conditions for 21 days. While in hypoxia, cages are cleaned and changed once a week, exposing the animals to ambient oxygen levels for less than 10 minutes. They are exposed to ambient oxygen levels from Day 22 to Day 56. Group 1 animals remain in cages exposed to ambient oxygen (normoxic) levels for 56 days. The animals are observed on a daily basis for any changes in their behaviour and general health status.
as §1, with “Day 22” for “Day 7”, “Table 10.” for “Table 13.”, “2-4 receives” for “2-4 receive”
Surgical Instrumentation and Measurement of Hemodynamic and Functional Parameters in Efficacy Study Animals • 1. On the selected day of surgery, rats are anaesthetized with a mixture of 2 to 2.5% isoflurane USP (Abbot Laboratories, Montreal, Canada) in oxygen, and placed on a heating pad to maintain body temperature. • 2. Rats are tracheotomized and immediately ventilated by means of a positive-pressure rodent respirator set at ≈10 ml/kg body weight at a frequency of 65-70 strokes/min. • 3. Lead II ECG contact electrodes is placed on the rat to continuously monitor the ECG during the surgical procedure. • 4. A cannula connected to a pressure transducer is inserted into the left femoral artery to measure the arterial blood pressure. • 5. A cannula connected to a pressure transducer is inserted into the right atria through the right jugular vein to measure the right atria pressure. • 6. The heart is exposed through a sternotomy and a 20GA 1.16 in Insyte is introduced into the right ventricle and rapidly hooked up to a saline filled PE-50 catheter connected to a transducer. • 7. Following a few seconds of right ventricular pressure recording, the Insyte is further advanced into the pulmonary artery to allow PAP recording for an additional 60 seconds. • 8. Hemodynamic parameters are recorded continuously for the duration of the procedure or until loss of PAP signal. • 9. Following hemodynamic monitoring, chest cavity is further opened to expose the lung. The muscle over the trachea is dissected away to remove the lungs and heart. Harvested tissue is rinsed with PBS to remove any excess of blood before to be weighed. • 10. For the histology and casting of the lungs, the process is as follows; 1) eight (8) rats per group is reserved to assess the histology of the left lung and is therefore be treated as described in point 12 of this section 8.2; 2) Two (2) rats per group serve to enable quantitative characterization of the three-dimensional vascular structure of the left lung and therefore is treated as described in section 8.3 for casting of the left lung. • 11. For histology, the left lobe is inflated using a 10 mL syringe filled with fixative (10% NBF) with attached blunt tip needle (23 g). Needle tip is inserted into the trachea, held in place with tied suture while another syringe is tied to the pulmonary artery. The lung is inflated gently at physiological pressure (20-25 mmHg) until all lobes are fully, uniformly, and consistently expanded (not allowing fixative to ooze through lung surface). This provides optimal vascular and airway expansion without causing excessive tissue disruption. […]

CCCc1nn(C)c2c(=O)[nH]c(-c3cc(S(=O)(=O)N4CCN(C)CC4)ccc3OCC)nc12 [Sildenafil, reference compound]
Mean Pulmonary Pressure [1]: 18.9 mmHg | Mean Pulmonary Pressure (Sugen hypoxia model; female rats): 22.5 mmHg | Mean Pulmonary Pressure (Sugen hypoxia model; male rats): 30.1 mmHg
